From the supplement of paper PMC11061612

Tests used:
Assay in all cases: combination Emax (second highest fraction inhibited in the dose matrix, 72 h); higher = more inhibition; extreme values may be limits of the assay
[1] = test system: BT-20 (Breast Carcinoma)
Summary of the method: (§1)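 Cell lines grown in DMEM/F12 or RPMI with 10% FBS were plated in 1536-well plates and held 24 hours at 37°C, 5% CO2 before 72 hours of exposure to two-drug dose matrices, with DMSO typically at 0.2%. CellTiter-Glo 2.0 luminescence gave viability, which was converted to inhibition. Vehicle wells were set to 0 and blank wells to 1. Combination Emax is the second-highest inhibition in the matrix, and Bliss excess is the observed combination effect minus the expected EA + EB − EA·EB, where EA and EB are the single-agent effects.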

[2] = test system: DG-75 (Burkitt's Lymphoma)
Summary of the method: as §1

[3] = test system: EW-3 (Ewing's Sarcoma)
Summary of the method: as §1

[4] = test system: GI-1 (Glioblastoma)
Summary of the method: as §1

[5] = test system: GOTO (Neuroblastoma)
Summary of the method: as §1

[6] = test system: H-EMC-SS (Chondrosarcoma)
Summary of the method: as §1

[7] = test system: HSC-2 (Oral Cavity Carcinoma)
Summary of the method: as §1

[8] = test system: HuP-T3 (Pancreatic Carcinoma)
Summary of the method: as §1

[9] = test system: JHH-7 (Hepatocellular Carcinoma)
Summary of the method: as §1

[10] = test system: KINGS-1 (Low Grade Glioma)
Summary of the method: as §1

[11] = test system: KYSE-50 (Esophageal Squamous Cell Carcinoma)
Summary of the method: as §1

[12] = test system: LC4-1 (B-Lymphoblastic Leukemia)
Summary of the method: as §1

[13] = test system: NB7 (Neuroblastoma)
Summary of the method: as §1

[14] = test system: NCI-H1573 (Lung Adenocarcinoma)
Summary of the method: as §1

[15] = test system: NCI-H322M (Lung Adenocarcinoma)
Summary of the method: as §1

[16] = test system: NCI-N87 (Gastric Carcinoma)
Summary of the method: as §1

[17] = test system: NH-12 (Neuroblastoma)
Summary of the method: as §1

[18] = test system: OCUM-1 (Gastric Carcinoma)
Summary of the method: as §1

[19] = test system: TGBC11TKB (Gastric Carcinoma)
Summary of the method: as §1

[20] = test system: VMRC-LCD (Lung Adenocarcinoma)
Summary of the method: as §1

CCc1c2c(nc3ccc(O)cc13)-c1cc3c(c(=O)n1C2)COC(=O)[C@]3(O)CC [SN-38] + O=C(c1cc(Cc2n[nH]c(=O)c3ccccc23)ccc1F)N1CCN(C(=O)C2CC2)CC1 [Olaparib] (first compound max 0.3 µM, 7x7, partner max 10 µM)
combination Emax [1]: 0.855
combination Emax [2]: 0.852
combination Emax [3]: 0.884
combination Emax [4]: 0.954
combination Emax [5]: 0.879
combination Emax [6]: 0.676
combination Emax [7]: 0.977
combination Emax [8]: 0.683
combination Emax [9]: 0.289
combination Emax [10]: 0.287
combination Emax [11]: 0.269
combination Emax [12]: 0.948
combination Emax [13]: 0.967
combination Emax [14]: 0.187
combination Emax [15]: 0.869
combination Emax [16]: 0.722
combination Emax [17]: 0.903
combination Emax [18]: 0.645
combination Emax [19]: 0.792
combination Emax [20]: 0.121
